Several values for one entry are separate records, joined by “and”; a condition that tells them apart may be missing. Equal values may be shown once. Read-outs that look alike come from different tables or passages of the source.
Target: T1, TLR9 (Mus musculus, UniProt Q9EQU3)
T1 construct: from tissue; host or cells: primary splenocytes from C57BL-6/N mouse spleen
T1 sequence (Q9EQU3 26-1032): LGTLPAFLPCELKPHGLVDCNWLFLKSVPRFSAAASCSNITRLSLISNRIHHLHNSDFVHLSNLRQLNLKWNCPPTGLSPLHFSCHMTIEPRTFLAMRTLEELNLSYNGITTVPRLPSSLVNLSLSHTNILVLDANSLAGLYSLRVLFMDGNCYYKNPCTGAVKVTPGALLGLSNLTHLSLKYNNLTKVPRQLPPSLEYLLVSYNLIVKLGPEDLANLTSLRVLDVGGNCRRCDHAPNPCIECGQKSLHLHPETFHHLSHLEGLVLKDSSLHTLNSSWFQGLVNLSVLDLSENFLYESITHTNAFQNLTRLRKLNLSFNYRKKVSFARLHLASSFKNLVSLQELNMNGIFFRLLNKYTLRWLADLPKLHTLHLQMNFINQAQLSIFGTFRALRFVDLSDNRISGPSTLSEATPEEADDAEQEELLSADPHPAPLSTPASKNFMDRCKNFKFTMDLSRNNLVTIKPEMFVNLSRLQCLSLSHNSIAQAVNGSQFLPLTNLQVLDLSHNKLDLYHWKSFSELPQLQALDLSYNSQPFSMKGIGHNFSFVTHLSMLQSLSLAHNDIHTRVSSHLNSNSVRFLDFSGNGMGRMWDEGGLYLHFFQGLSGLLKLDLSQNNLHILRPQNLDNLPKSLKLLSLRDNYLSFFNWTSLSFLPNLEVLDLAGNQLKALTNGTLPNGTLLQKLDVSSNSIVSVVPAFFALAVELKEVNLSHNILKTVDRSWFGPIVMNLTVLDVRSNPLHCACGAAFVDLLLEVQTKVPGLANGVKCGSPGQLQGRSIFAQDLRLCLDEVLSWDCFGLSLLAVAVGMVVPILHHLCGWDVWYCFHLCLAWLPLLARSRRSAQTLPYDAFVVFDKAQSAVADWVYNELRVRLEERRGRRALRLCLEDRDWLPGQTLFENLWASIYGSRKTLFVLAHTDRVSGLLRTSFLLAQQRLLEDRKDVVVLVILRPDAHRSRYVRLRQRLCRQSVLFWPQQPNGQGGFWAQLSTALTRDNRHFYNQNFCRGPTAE
Assay: Mouse spleenocytes cell assay with CpG stimulation (IL6/TNFa ELISA)
Type: cell-based
Details: CpG 5 µM
Description: Mouse spleen from healthy, female C57BL-6/N mice (n=2) were taken out in 50 mL tubes with B-Cell medium and the experiment started directly. The spleen was grinded through a cell strainer by using the punch of a syringe into a 50 mL Falcon tube. Cell strainer and punch were flushed with appropriate amount of washing buffer to avoid cellloss. Then the spleenocytes were centrifuged for 10 min at 552 xg (1600 rpm), 4° C. The erythrocytes within the cell pellet were lysed by resuspending pellet in 1 ml ACK-lysing buffer (4° C.) and incubate for 1 minute at RT. Lysis was stopped by filling up to 50 ml with washing buffer and centrifuged for 10 min at 552 xg (1600 rpm), 4° C. Cells were washed in B-cell Media (IMDM + 25 mM HEPES + 10%FCS + pen/strep + NEAA 10 nM + Sodium Pyrovat 100 nM, β-Mercaptoethanol 50 nM), counted and seeded in a density of 148500 cells per well in a 96 well MTP (135µl of 1,1×106c/ml). The cells were pre-treated with antimalarials (15 µL, in different concentrations according to dose-response curve ranging from 100 pM-50 µM)) for 30 min, at 37° C., 5% CO2, followed by TLR⅞ stimulation with R848 (15 µl, final concentration of 1 µM) or a TLR9 stimulation with CpG (15 µl, final concentration of 5 µM) and incubated at 37° C., 5% CO2 for 18 - 24 hours.
Supernatants were collected and transferred into a 96 well round bottom MTP and stored at -20° C. until ELISA formouse IL6 and mouse TNFa were performed. Plates were read directly after assay on an Envision Multiplate reader. Results were analyzed with GraphPadPrism V8.0. Plot the calculated amount of produced IL6 or TNFa in pg/ml on y-axis and the concentration of each MSC concentration at half logarhythmic scaling on the x-axis to achieve a dose-response curve. Determine IC50 values using Graph Pad Prism analysis software (Transform Y values using “X=Log(X) and log inhibitor vs. response; Variable slope (four parameters).

[1] = IL6 readout, read-out: IC50 TLR9 (IL6 readout) mouse spleenocytes (n=2)
[2] = TNF readout, read-out: IC50 TLR9 (TNF readout) mouse spleenocytes (n=2)

SMILES	IC50 [1]	IC50 [2]	IC50 TLR9 (TNF readout) mouse spleenocytes (n=2) (TNF readout)
COc1ccc2nc3cc(Cl)ccc3c(Nc3cc(CN4CCCC4)c(O)c(CN4CCCC4)c3)c2n1 [Compound 1, Pyronaridine]	14 nM and 35 nM	21 nM and 140 nM	–
CCN(CCO)CCCC(C)Nc1ccnc2cc(Cl)ccc12 (centres unmarked) [HYDROXY-CHLOROQUINE HCQ, hydroxychloroquine]	15400 nM and 1700 nM	11500 nM	no suppr

From patent US20230301981A1, “TLR7/8 ANTAGONISTS AND USES THEREOF” (Merck Patent GmbH, priority 2020, published 2023)
